Where a name gives a salt, the structure may show the parent alone.
What was measured:
[1] = Solubility of bendamustine hydrochloride in water and organic solvents; format: physicochemical
From the text: Therefore it is not surprising that the oral bendamustine compositions, as investigated by Preiss et al. and Weber gave rise to relatively poor bioavailability results and a large inter-individual variability.

[2] = cited from earlier work
[3] = B6D2F1-mice, absorption from the gastro-intestinal tract; cited from earlier work
[4] = Bendamustine hydrochloride solubility in carriers (HPLC of supernatant); format: physicochemical
Description: Due to the necessity to determine if part of the bendamustine hydrochloride added to the vehicle is dissolved, in order to verify a possible degradation, an analytical procedure, from sample preparation to its analysis, was developed.
Essentially, it consisted in the preparation of a supersaturated solution of bendamustine hydrochloride in the oil: the minimum amount of bendamustine hydrochloride suitable to generate sedimentation of solid particle on the bottom of the vessel was added to the oil warmed at 40° C.; this solution was electromagnetically stirred for several days (about 4) at room temperature and then centrifuged at 3000 rpm for 15 minutes. The supernatant was analysed by HPLC versus a solution of bendamustine hydrochloride working standard (0,551 mg/ml).
Essentially, it consisted in the preparation of a supersaturated solution of bendamustine hydrochloride in the vehicle: the minimum amount of bendamustine hydrochloride suitable to generate sedimentation of solid particle on the bottom of the vessel was added to the oil heated to about 5° C. above its melting point; this solution was kept in static condition at this temperature overnight, to allow sedimentation on the bottom. The supernatant was analysed by HPLC versus a solution of API working standard (0.551 mg/ml).
In table 21.a below, the results of the analysis are reported expressed as mg of bendamustine hydrochloride completely dissolved in about 1 g of solution of the carrier selected.
Further samples for the solubility evaluation were prepared by adding, under stirring, a quantity of active ingredient (API) suitable to generate a phase segregation to a determined amount of each carrier. The samples were prepared at a temperature slightly above the melting point of each carrier (except for liquid vehicles) and kept at this temperature for about 5 hrs (estimated manufacturing process time). Where applicable, each sample was centrifuged to accelerate phase segregation; an amount of the supernatant, corresponding to the filling weight of a capsule (about 600 mg), was withdrawn and evaluated for assay to determine the amount of API actually dissolved.
Each solubility value is related to a specific temperature, corresponding to the value set for the filling into capsules (see table 14).

[5] = carrier CREMOPHOR A6 (Semisolid at room temperature), suspension weight 1015.3 mg
[6] = carrier CREMOPHOR A25 (Semisolid at room temperature), suspension weight 995.6 mg
[7] = carrier CREMOPHOR EL (Liquid at room temperature), suspension weight 1026.8 mg
[8] = carrier CREMOPHOR RH40 (Semisolid at room temperature), suspension weight 1000.4 mg
[9] = carrier LABRAFAC PG (Liquid at room temperature), suspension weight 1961.5 mg
[10] = carrier LABRAFIL M1944 CS (Liquid at room temperature), suspension weight 1011.7 mg
[11] = carrier LABRAFIL M2125 (Liquid at room temperature), suspension weight 765.2 mg
[12] = carrier LAUROGLYCOL 90 (Liquid at room temperature), suspension weight 993.9 mg
[13] = carrier LAUROGLYCOL FCC (Liquid at room temperature), suspension weight 1934.8 mg
[14] = carrier MIGLYOL 810 (Liquid at room temperature), suspension weight 602.8 mg
[15] = carrier MIGLYOL 812 (Liquid at room temperature), suspension weight 1044.1 mg
[16] = carrier MIGLYOL 829 (Liquid at room temperature), suspension weight 1865.0 mg
[17] = carrier MIGLYOL 840 (Liquid at room temperature), suspension weight 599.9 mg
[18] = carrier PLUROL oleique CC497 (Liquid at room temperature), suspension weight 1005.8 mg
[19] = carrier PLURONIC L44 NF INH (Liquid at room temperature), suspension weight 1987.1 mg
[20] = carrier SOFTIGEN 701 (Liquid at room temperature), suspension weight 1079.0 mg
[21] = carrier SOFTISAN 645 (Liquid at room temperature), suspension weight 1014.0 mg
[22] = carrier TRANSCUTOL HP (Liquid at room temperature), suspension weight 1003.1 mg

Question: Which results are given for `Cn1c(CCCC(=O)O)nc2cc(N(CCCl)CCCl)ccc21` [bendamustine hydrochloride]?
Answer: solubility in a range of organic solvents [1]: slightly or very slightly soluble; solubility in ethanol and methanol [1]: good solubility; solubility in water ([1]; pH of 2.0): sparingly soluble; mean oral bioavailability ([2]; 7 patients, oral capsules vs intravenous, 4.2-5.5 mg/kg): 57%; time to maximal plasma levels after oral administration ([2]; patients, oral capsules of 25 mg, 250-350 mg): ≤ 1 h; bioavailability [3]: about 40%; Solubility ([4]; carrier BRIJ C2 (Semisolid), T 45 ° C.): 0.004 mg API/mg Solution; Solubility ([4]; carrier BRIJ L4 (Liquid), T 25 ° C.): 0.008 mg API/mg Solution; Solubility ([4]; carrier BRIJ L23 (Solid), T 45 ° C.): 0.004 mg API/mg Solution; Solubility ([4]; carrier BRIJ O10 (Semisolid), T 45 ° C.): 0.007 mg API/mg Solution; Solubility ([4]; carrier BRIJ O20 (Semisolid), T 45 ° C.): 0.006 mg API/mg Solution; Solubility ([4]; carrier BRIJ S10 (Solid), T 42 ° C.): 0.003 mg API/mg Solution; Solubility ([4]; carrier BRIJ S20 (Solid), T 50 ° C.): 0.008 mg API/mg Solution; Solubility ([4]; carrier BRIJ S721 (Solid), T 45 ° C.): 0.004 mg API/mg Solution; % API [4, 5]: 0.00%; API recovered [4, 5]: 0.00 mg; % API [4, 6]: 0.21%; API recovered [4, 6]: 2.10 mg; % API [4, 7]: 0.5%; API recovered [4, 7]: 5.13 mg; % API [4, 8]: 0.77%; API recovered [4, 8]: 7.72 mg; Solubility ([4]; carrier GELUCIRE 44/14 (Semisolid), T 45 ° C.): 0.004 mg API/mg Solution; Solubility ([4]; carrier GLYCEROX HE (Liquid), T 25 ° C.): 0.005 mg API/mg Solution; % API [4, 9]: 0.001%; API recovered [4, 9]: 0.01 mg; % API [4, 10]: 0.04%; API recovered [4, 10]: 0.38 mg; % API [4, 11]: 0.02%; API recovered [4, 11]: 0.17 mg; % API [4, 12]: 0.06%; API recovered [4, 12]: 0.61 mg; % API [4, 13]: 0.02%; API recovered [4, 13]: 0.33 mg; % API [4, 14]: 0.01%; API recovered [4, 14]: 0.04 mg; % API [4, 15]: 0.003%; API recovered [4, 15]: 0.03 mg; % API [4, 16]: 0.001%; API recovered [4, 16]: 0.03 mg; % API [4, 17]: 0.01%; API recovered [4, 17]: 0.06 mg; Solubility ([4]; carrier MIRJ S8 (Semisolid), T 42 ° C.): 0.010 mg API/mg Solution; Solubility ([4]; carrier MIRJ S40 (Solid), T 50 ° C.): 0.005 mg API/mg Solution; Solubility ([4]; carrier MIRJ S100 (Semisolid), T 50 ° C.): 0.009 mg API/mg Solution; % API [4, 18]: 0.21%; API recovered [4, 18]: 2.12 mg; Solubility ([4]; carrier PLURONIC 103 (Semisolid), T 45 ° C.): 0.002 mg API/mg Solution; Solubility ([4]; carrier PLURONIC F108 (Solid), T 70 ° C.): 0.006 mg API/mg Solution; Solubility ([4]; carrier PLURONIC L35 (Liquid), T 25 ° C.): 0.000 mg API/mg Solution; Solubility ([4]; carrier PLURONIC L43 (Liquid), T 25 ° C.): 0.000 mg API/mg Solution; % API [4, 19]: 0.18%; API recovered [4, 19]: 3.64 mg; Solubility ([4]; carrier PLURONIC L64 (Liquid), T 25 ° C.): 0.000 mg API/mg Solution; Solubility ([4]; carrier PLURONIC P85 (Semisolid), T 50 ° C.): 0.002 mg API/mg Solution; Solubility ([4]; carrier PLURONIC P105 (Semisolid), T 50 ° C.): 0.002 mg API/mg Solution; % API [4, 20]: 0.29%; API recovered [4, 20]: 5.42 mg; % API [4, 21]: 0.16%; API recovered [4, 21]: 1.60 mg; Solubility ([4]; carrier SOLUTOL HS15 (Semisolid), T 35 ° C.): 0.007 mg API/mg Solution; Solubility ([4]; carrier SPEZIOL TPGS (Semisolid), T 45 ° C.): 0.002 mg API/mg Solution; % API [4, 22]: 1.00%; API recovered [4, 22]: 10.01 mg; Solubility ([4]; carrier TWEEN 20 (Liquid), T 25 ° C.): 0.008 mg API/mg Solution; Solubility ([4]; carrier TWEEN 40 (Liquid), T 25 ° C.): 0.007 mg API/mg Solution; Solubility ([4]; carrier TWEEN 61 (Semisolid), T 45 ° C.): 0.019 mg API/mg Solution; Solubility ([4]; carrier TWEEN 65 (Liquid), T 45 ° C.): 0.007 mg API/mg Solution; Solubility ([4]; carrier TWEEN 81 (Liquid), T 25 ° C.): 0.004 mg API/mg Solution; bendamustine hydrochloride recovered in a supersaturated solution in liquid or semisolid oily vehicles ([4]; selected carriers): < 1%
